Measured values: patent US20230257351A1, “SUBSTITUTED N-[…] HAVING P2X4 RECEPTOR ANTAGONISTIC ACTIVITY” (Bayer Aktiengesellschaft, priority 2020, published 2023)

Target: T1, human P2X4 (Homo sapiens, UniProt Q99571)
T1 construct: expressed in transfected cells
T1 sequence (Q99571 1-388): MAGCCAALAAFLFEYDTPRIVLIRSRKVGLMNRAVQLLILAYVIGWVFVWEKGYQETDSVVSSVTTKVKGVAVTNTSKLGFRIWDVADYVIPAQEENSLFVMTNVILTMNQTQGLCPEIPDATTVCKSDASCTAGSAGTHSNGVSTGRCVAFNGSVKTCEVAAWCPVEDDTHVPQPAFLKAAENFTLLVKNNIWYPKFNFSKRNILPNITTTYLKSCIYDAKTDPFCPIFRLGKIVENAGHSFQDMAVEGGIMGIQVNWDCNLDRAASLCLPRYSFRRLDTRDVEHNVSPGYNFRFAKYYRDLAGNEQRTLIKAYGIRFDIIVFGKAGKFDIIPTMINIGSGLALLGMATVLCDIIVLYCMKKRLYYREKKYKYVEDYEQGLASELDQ
Test: Human P2X4 HEK Cell FLIPR Assay
Format: cell-based
Conditions: HEK293 stably expressing human P2X4, agonist Bz-ATP 3 μM (EC80); for IC50: read-out: Human P2X4 HEK Cells (FLIPR Assay) avg IC50
How it was run: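 Compounds were preincubated 30 min at room temperature on Fluo8-AM-loaded HEK293 cells stably expressing human P2X4. The response was the calcium fluorescence rise on Bz-ATP addition.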

| Compound | Human P2X4 HEK Cells (FLIPR Assay) avg Efficacy | IC50 |
| --- | --- | --- |
| CC(=O)N(c1cc(NC(=O)Cc2ccccc2Cl)ccn1)c1ccccc1C(F)F [Example 166, N-{4-[2-(2-Chlorphenyl)acetamido]pyridin-2-yl}-N-[2-(difluormethyl)phenyl]acetamide] | 97% | 663 nM |
| CC(=O)N(c1cc(NC(=O)Cc2c(F)cccc2Cl)ccn1)c1ccccc1C(F)F [Example 168, N-{4-[2-(2-Chlor-6-fluorphenyl)acetamido]pyridin-2-yl}-N-[2-(difluormethyl)phenyl]acetamide] | 99% | 761 nM |
| CC(=O)N(c1cc(NC(=O)Cc2ccc(F)cc2Cl)ccn1)c1ccccc1C(F)F [Example 169, N-{4-[2-(2-Chlor-4-fluorphenyl)acetamido]pyridin-2-yl}-N-[2-(difluormethyl)phenyl]acetamide] | 101% | 813 nM |
| CC(=O)N(c1cc(NC(=O)Cc2cccc(F)c2Cl)ccn1)c1ccc(C)cc1C [Example 171, N-{4-[2-(2-Chlor-3-fluorphenyl)acetamido]pyridin-2-yl}-N-(2,4-dimethylphenyl)acetamide] | 103% | 511 nM |
| CC(=O)N(c1cc(NC(=O)Cc2c(Cl)cccc2Cl)ccn1)c1ccc(C)cc1C [Example 173, N-{4-[2-(2,6-Dichlorphenyl)acetamido]pyridin-2-yl}-N-(2,4-dimethylphenyl)acetamide] | 104% | 526 nM |
| CC(=O)N(c1cc(NC(=O)Cc2ccc(F)cc2Cl)ccn1)c1ccc(C)cc1C [Example 174, N-{4-[2-(2-Chlor-4-fluorphenyl)acetamido]pyridin-2-yl}-N-(2,4-dimethylphenyl)acetamide] | 103% | 528 nM |
| CC(=O)N(c1cc(C)cc(C#N)c1)c1cc(NC(=O)Cc2ccccc2Cl)ccn1 [Example 175, N-{4-[2-(2-Chlorphenyl)acetamido]pyridin-2-yl}-N-(3-cyan-5-methylphenyl)acetamide] | 97% | 516 nM |
| CC(=O)N(c1cc(C)cc(C#N)c1)c1cc(NC(=O)Cc2c(F)cccc2Cl)ccn1 [Example 179, N-{4-[2-(2-Chlor-6-fluorphenyl)acetamido]pyridin-2-yl}-N-(3-cyan-5-methylphenyl)acetamide] | 98% | 673 nM |
| CC(=O)N(c1ccc(C)c(Cl)c1)c1cc(NC(=O)Cc2ccccc2Cl)ccn1 [Example 180, N-(3-Chlor-4-methylphenyl)-N-{4-[2-(2-chlorphenyl)acetamido]pyridin-2-yl}acetamide] | 101% | 569 nM |
| CC(=O)N(c1ccc(C)c(Cl)c1)c1cc(NC(=O)Cc2c(Cl)cccc2Cl)ccn1 [Example 182, N-(3-Chlor-4-methylphenyl)-N-{4-[2-(2,6-dichlorphenyl)acetamido]pyridin-2-yl}acetamide] | 102% | 593 nM |
| CC(=O)N(c1cc(NC(=O)Cc2c(F)cccc2Cl)ccn1)c1ccc(F)c(C)c1C [Example 184, N-{4-[2-(2-Chlor-6-fluorphenyl)acetamido]pyridin-2-yl}-N-(4-fluor-2,3-dimethylphenyl)acetamide] | 104% | 893 nM |
| CC(=O)N(c1ccccc1)c1cc(NC(=O)Cc2c(Cl)cccc2Cl)cnn1 [Example 185, N-{5-[2-(2,6-dichlorophenyl)acetamido]pyridazin-3-yl}-N-phenylacetamide] | 101% | 438 nM |
| CC(=O)N(c1ccccc1)c1cc(NC(=O)Cc2cccc(F)c2Cl)cnn1 [Example 186, N-{5-[2-(2-chloro-3-fluorophenyl)acetamido]pyridazin-3-yl}-N-phenylacetamide] | 99% | 655 nM |
| CC(=O)N(c1ccccc1)c1cc(NC(=O)Cc2ccccc2Cl)cnn1 [Example 187, N-{5-[2-(2-chlorophenyl)acetamido]pyridazin-3-yl}-N-phenylacetamide] | 100% | 700 nM |
| CC(=O)N(c1ccccc1)c1cc(NC(=O)Cc2ccc(F)cc2Cl)cnn1 [Example 188, N-{5-[2-(2-chloro-4-fluorophenyl)acetamido]pyridazin-3-yl}-N-phenylacetamide] | 98% | 829 nM |
| CC(=O)N(c1ccc(F)cc1)c1cc(NC(=O)Cc2ccc(F)cc2Cl)cnn1 [Example 190, N-{5-[2-(2-chloro-4-fluorophenyl)acetamido]pyridazin-3-yl}-N-(4-fluorophenyl)acetamide] | 95% | 716 nM |
| CC(=O)N(c1ccc(F)cc1)c1cc(NC(=O)Cc2cccc(F)c2Cl)cnn1 [Example 191, N-{5-[2-(2-chloro-3-fluorophenyl)acetamido]pyridazin-3-yl}-N-(4-fluorophenyl)acetamide] | 92% | 739 nM |
| CC(=O)N(c1ccc(F)cc1)c1cc(NC(=O)Cc2ccccc2Cl)cnn1 [Example 192, N-{5-[2-(2-chlorophenyl)acetamido]pyridazin-3-yl}-N-(4-fluorophenyl)acetamide] | 90% | 766 nM |

Continued, values first:

| Human P2X4 HEK Cells (FLIPR Assay) avg Efficacy | IC50 | Compound |
| --- | --- | --- |
| 100% | 665 nM | COc1cc(F)cc(N(C(C)=O)c2cc(NC(=O)Cc3ccc(F)cc3Cl)ccn2)c1 [Example 163, N-{4-[2-(2-Chlor-4-fluorphenyl)acetamido]pyridin-2-yl}-N-(3-fluor-5-methoxyphenyl)acetamide] |
| 100% | 683 nM | COc1cc(F)cc(N(C(C)=O)c2cc(NC(=O)Cc3c(F)cccc3Cl)ccn2)c1 [Example 164, N-{4-[2-(2-Chlor-6-fluorphenyl)acetamido]pyridin-2-yl}-N-(3-fluor-5-methoxyphenyl)acetamide] |
| 99% | 402 nM | CC(=O)N(c1cc(NC(=O)Cc2c(Cl)cccc2Cl)ccn1)c1ccccc1C(F)F [Example 165, N-{4-[2-(2,6-Dichlorphenyl)acetamido]pyridin-2-yl}-N-[2-(difluormethyl)phenyl]acetamide] |
| 100% | 677 nM | CC(=O)N(c1cc(NC(=O)Cc2cccc(F)c2Cl)ccn1)c1ccccc1C(F)F [Example 167, N-{4-[2-(2-Chlor-3-fluorphenyl)acetamido]pyridin-2-yl}-N-[2-(difluormethyl)phenyl]acetamide] |
| 104% | 468 nM | CC(=O)N(c1cc(NC(=O)Cc2ccccc2Cl)ccn1)c1ccc(C)cc1C [Example 170, N-{4-[2-(2-Chlorphenyl)acetamido]pyridin-2-yl}-N-(2,4-dimethylphenyl)acetamide] |
| 104% | 520 nM | CC(=O)N(c1cc(NC(=O)Cc2c(F)cccc2Cl)ccn1)c1ccc(C)cc1C [Example 172, N-{4-[2-(2-Chlor-6-fluorphenyl)acetamido]pyridin-2-yl}-N-(2,4-dimethylphenyl)acetamide] |
| 101% | 567 nM | CC(=O)N(c1cc(C)cc(C#N)c1)c1cc(NC(=O)Cc2c(Cl)cccc2Cl)ccn1 [Example 176, N-(3-Cyan-5-methylphenyl)-N-{4-[2-(2,6-dichlorphenyl)acetamido]pyridin-2-yl}acetamide] |
| 96% | 578 nM | CC(=O)N(c1cc(C)cc(C#N)c1)c1cc(NC(=O)Cc2cccc(F)c2Cl)ccn1 [Example 177, N-{4-[2-(2-Chlor-3-fluorphenyl)acetamido]pyridin-2-yl}-N-(3-cyan-5-methylphenyl)acetamide] |
| 99% | 621 nM | CC(=O)N(c1cc(C)cc(C#N)c1)c1cc(NC(=O)Cc2ccc(F)cc2Cl)ccn1 [Example 178, N-{4-[2-(2-Chlor-4-fluorphenyl)acetamido]pyridin-2-yl}-N-(3-cyan-5-methylphenyl)acetamide] |
| 101% | 574 nM | CC(=O)N(c1ccc(C)c(Cl)c1)c1cc(NC(=O)Cc2cccc(F)c2Cl)ccn1 [Example 181, N-{4-[2-(2-Chlor-3-fluorphenyl)acetamido]pyridin-2-yl}-N-(3-chlor-4-methylphenyl)acetamide] |
| 101% | 599 nM | CC(=O)N(c1ccc(C)c(Cl)c1)c1cc(NC(=O)Cc2c(F)cccc2Cl)ccn1 [Example 183, N-{4-[2-(2-Chlor-6-fluorphenyl)acetamido]pyridin-2-yl}-N-(3-chlor-4-methylphenyl)acetamide] |
| 93% | 654 nM | CC(=O)N(c1ccc(F)cc1)c1cc(NC(=O)Cc2c(F)cccc2Cl)cnn1 [Example 189, N-{5-[2-(2-chloro-6-fluorophenyl)acetamido]pyridazin-3-yl}-N-(4-fluorophenyl)acetamide] |
| 93% | 868 nM | CC(=O)N(c1ccc(F)cc1)c1cc(NC(=O)Cc2c(Cl)cccc2Cl)cnn1 [Example 193, N-{5-[2-(2,6-dichlorophenyl)acetamido]pyridazin-3-yl}-N-(4-fluorophenyl)acetamide] |
